Measurements from patent publication US20250032485A1, “APPLICATION OF IMIDAZO [1,2-A] PYRAZINE COMPOUNDS OR THEIR PHARMACEUTICALLY ACCEPTABLE SALTS IN THE PREPARATION OF ANTI-CORONAVIRUS DRUGS” (GUANGZHOU MEDICAL UNIVERSITY, priority 2023, published 2025).

Biological target: PLpro of SARS-CoV-2 (Severe acute respiratory syndrome coronavirus 2, UniProt P0DTD1)
Test: Enzyme activity test in vitro: inhibition of PLpro at fixed concentration 50 μM (RLRGG-AMC substrate)
Assay type: biochemical
Settings: read-out: Inhibition rate at 50 μM (%)

Row | SMILES | inhibition at 50 µM
1 | CSc1ccc(-c2nc3cnccn3c2Nc2cccc(C(=O)NCCN(C)C)c2)cc1 [P22467, N-[2-(dimethylamino)ethyl]-3-[[2-(4-methylsulfanylphenyl)imidazo[1,2-a]pyrazin-3-yl]amino] benzamide] | 29.8%
2 | O=C(c1cccc(Nc2c(-c3ccc(Cl)cc3)nc3cnccn23)c1)N1CCCCC1 [P22468, [3-[[2-(4-chlorophenyl)imidazo[1,2-a]pyrazin-3-yl]amino]phenyl]-piperidin-1-ylmethanone] | 29%
3 | O=C(NCc1ccco1)c1cccc(Nc2c(-c3ccc(Cl)cc3)nc3cnccn23)c1 [P22469, 3-[[2-(4-chlorophenyl)imidazo[1,2-a]pyrazin-3-yl]amino]-N-(furan-2-ylmethyl) benzamide] | 40.5%
4 | COc1ccc(-c2nc3cnccn3c2Nc2ccc(C(=O)N3CCOCC3)cc2)cc1OC [P22470, [4-[[2-(3,4-dimethoxy-phenyl)imidazo[1,2-a]pyrazin-3-yl]amino]phenyl]-morpholin-4-ylmethanone] | 32.1%
5 | O=C(NCCN1CCOCC1)c1ccc(Nc2c(-c3ccccc3)nc3cnccn23)cc1 [P22472, N-(2-morpholin-4-ylethyl)-4-[(2-phenyl-imidazo[1,2-a]pyrazin-3-yl)amino] benzamide] | 33%
6 | COc1ccc(-c2nc3cnccn3c2Nc2ccc(C(=O)NCC3CCCO3)cc2)cc1 (stereo not shown) [P22473, 4-[[2-(4-methoxy-phenyl)imidazo[1,2-a]pyrazin-3-yl]amino]-N-(oxolan-2-ylmethyl) benzamide] | 36.8%
7 | O=C(c1ccc(Nc2c(-c3ccccc3)nc3cnccn23)cc1)N1CCOCC1 [P22474, morpholin-4-yl-[4-[(2-phenylimidazo [1,2-a]pyrazin-3-yl)amino]phenyl] methanone] | 35.3%
8 | CC(C)NC(=O)c1cccc(Nc2c(-c3ccccc3)nc3cnccn23)c1 [P22476, 3-[(2-phenylimidazo [1,2-a]pyrazin-3-yl)amino]-N-propan-2-ylbenzamide] | 29%
9 | O=C(NCC1CCCO1)c1cccc(Nc2c(-c3ccccc3)nc3cnccn23)c1 (stereo not shown) [P22477, N-(oxolan-2-ylmethyl)-3-[(2-phenylimidazo [1,2-a]pyrazin-3-yl)amino]benzamide] | 41%
10 | CSc1ccc(-c2nc3cnccn3c2Nc2cccc(C(=O)N3CCCCC3)c2)cc1 [P22478, [3-[[2-(4-methyl-sulfanylphenyl)imidazo [1,2-a]pyrazin-3-yl]amino]phenyl]-piperidin-1-ylmethanone] | 43.9%
11 | COc1ccc(-c2nc3cnccn3c2Nc2ccc(C(=O)NCc3ccco3)cc2)cc1OC [P22480, 4-[[2-(3,4-dimethoxy-phenyl)imidazo[1,2-a]pyrazin-3-yl]amino]-N-(furan-2-ylmethyl)benzamide] | 40.6%
12 | O=C(NC1CCCCC1)c1cccc(Nc2c(-c3ccc(F)cc3)nc3cnccn23)c1 [P22481, N-cyclohexyl-3-[[2-(4-fluorophenyl)imidazo[1,2-a]pyrazin-3-yl]amino] benzamide] | 11.8%
13 | CCOC(=O)c1ccc(Nc2c(-c3ccc(C)cc3)nc3cnccn23)cc1 [P22482, ethyl 4-[[2-(4-methylphenyl)imidazo[1,2-a]pyrazin-3-yl]amino] benzoate] | 22.2%
14 | CCOC(=O)c1ccc(Nc2c(-c3ccccc3)nc3cnccn23)cc1 [P22483, ethyl 4-[(2-phenylimidazo [1,2-a]pyrazin-3-yl)amino]benzoate] | 29.4%
15 | COC(=O)c1ccc(-c2nc3cnccn3c2Nc2ccc(OC)c(OC)c2)cc1 [P22491, methyl 4-[3-(3,4-dimethoxy-anilino)imidazo[1,2-a]pyrazin-2-yl] benzoate] | 22.4%
16 | CCOC(=O)c1ccc(Nc2c(-c3ccc(Cl)cc3)nc3cnccn23)cc1 [P22492, ethyl 4-[[2-(4-chlorophenyl)imidazo[1,2-a]pyrazin-3-yl]amino] benzoate] | 29.5%

Row | SMILES | inhibition at 50 µM
17 | O=C(O)c1ccc(Nc2c(-c3cccc(Cl)c3)nc3cnccn23)cc1 [P22493, 4-[[2-(3-chlorophenyl)imidazo[1,2-a]pyrazin-3-yl]amino] benzoic acid] | 13.2%
18 | CCc1cccc(C)c1Nc1c(-c2ccc(C(=O)NC)cc2)nc2cnccn12 [P22501, 4-[3-(2-ethyl-6-methyl-anilino)imidazo [1,2-a]pyrazin-2-yl]-N-methyl-benzamide] | 28.7%
19 | CCOC(=O)c1ccc(Nc2c(-c3ccc(N(C)C)cc3)nc3cnccn23)cc1 [P22502, ethyl 4-[[2-[4-(dimethyl-amino)phenyl]imidazo [1,2-a]pyrazin-3-yl]amino]benzoate] | 14.4%
20 | O=C(O)c1ccc(Nc2c(-c3cc(Br)ccc3O)nc3cnccn23)cc1 [P22503, 4-[[2-(5-bromo-2-hydroxyphenyl)imidazo [1,2-a]pyrazin-3-yl]amino]benzoic acid] | 27.6%
21 | CCNC(=O)c1ccc(-c2nc3cnccn3c2Nc2c(C)cccc2CC)cc1 [P22511, N-ethyl-4-[3-(2-ethyl-6-methylanilino)imidazo[1,2-a]pyrazin-2-yl]benzamide] | 27.7%
22 | CCOC(=O)c1ccc(Nc2c(-c3ccccc3O)nc3cnccn23)cc1 [P22512, ethyl 4-[[2-(2-hydroxy-phenyl)imidazo[1,2-a]pyrazin-3-yl]amino] benzoate] | 26.9%
23 | CCc1cccc(C)c1Nc1c(-c2ccc(NC(C)=O)cc2)nc2cnccn12 [P22513, N-[4-[3-(2-ethyl-6-methylanilino)imidazo [1,2-a]pyrazin-2-yl]phenyl]acetamide] | 21.9%
24 | CCOC(=O)c1ccc(Nc2c(-c3ccc(C(=O)OC)cc3)nc3cnccn23)cc1 [P22521, methyl 4-[3-(4-ethoxy-carbonylanilino)imidazo[1,2-a]pyrazin-2-yl]benzoate] | 22%
25 | CCOC(=O)c1ccc(Nc2c(-c3cccc(Cl)c3)nc3cnccn23)cc1 [P22522, ethyl 4-[[2-(3-chlorophenyl)imidazo[1,2-a]pyrazin-3-yl]amino] benzoate] | 32.3%
26 | CCOC(=O)c1ccc(Nc2c(-c3ccc(OC)cc3)nc3cnccn23)cc1 [P22531, ethyl 4-[[2-(4-methoxy-phenyl)imidazo[1,2-a]pyrazin-3-yl]amino] benzoate] | 31.9%
27 | CCOC(=O)c1ccc(Nc2c(-c3cccc(Br)c3)nc3cnccn23)cc1 [P22532, ethyl 4-[[2-(3-bromophenyl)imidazo[1,2-a]pyrazin-3-yl]amino] benzoate] | 24.2%
28 | CCOC(=O)c1ccc(Nc2c(-c3ccc(SC)cc3)nc3cnccn23)cc1 [P22541, ethyl 4-[[2-(4-methyl-sulfanylphenyl)imidazo [1,2-a]pyrazin-3-yl]amino]benzoate] | 33.8%
29 | CCOC(=O)c1ccc(Nc2c(-c3cc(Br)ccc3O)nc3cnccn23)cc1 [P22542, ethyl 4-[[2-(5-bromo-2-hydroxyphenyl)imidazo [1,2-a]pyrazin-3-yl]amino]benzoate] | 31.5%
30 | CCOC(=O)c1ccc(Nc2c(-c3ccc(O)c(OC)c3)nc3cnccn23)cc1 [P22551, ethyl 4-[[2-(4-hydroxy-3-methoxyphenyl)imidazo[1,2-a]pyrazin-3-yl]amino]benzoate] | 21%
31 | CCOC(=O)c1ccc(Nc2c(-c3cccc(O)c3)nc3cnccn23)cc1 [P22552, ethyl 4-[[2-(3-hydroxy-phenyl)imidazo[1,2-a]pyrazin-3-yl]amino] benzoate] | 19.9%
